Data published in PubChem BioAssay (NCI).
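Protocol summary: plate cells (96-well), add compound at 5 concentrations, incubate 48 h, interpolate endpoints linearly. The concentration for 50% growth inhibition is given as GI50. At the TGI there is no net growth.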

Key:
Assay in all cases: NCI-60 cell line screen, 48 h
[1] = system: SF-295 CNS
[2] = system: HOP-62 NSCLC
[3] = system: M14 melanoma
[4] = system: HT29 colon
[5] = system: MALME-3M melanoma
[6] = system: K-562 leukemia
[7] = system: LOX IMVI melanoma
[8] = system: NCI/ADR-RES ovarian
[9] = system: SK-MEL-2 melanoma
[10] = system: OVCAR-3 ovarian
[11] = system: HL-60(TB) leukemia
[12] = system: SNB-19 CNS
[13] = system: SK-MEL-5 melanoma
[14] = system: CCRF-CEM leukemia
[15] = system: NCI-H460 lung
[16] = system: NCI-H226 lung
[17] = system: RXF 393 renal
[18] = system: ACHN renal
[19] = system: SNB-75 CNS
[20] = system: SN12C renal
[21] = system: HCT-15 colon
[22] = system: KM12 colon
[23] = system: SF-539 CNS
[24] = system: MOLT-4 leukemia
[25] = system: PC-3 prostate
[26] = system: UACC-257 melanoma
[27] = system: IGROV1 ovarian
[28] = system: HOP-92 NSCLC
[29] = system: SR leukemia
[30] = system: COLO 205 colon
[31] = system: HCC-2998 colon
[32] = system: UACC-62 melanoma
[33] = system: SF-268 CNS
[34] = system: A498 renal
[35] = system: 786-0 renal
[36] = system: EKVX NSCLC
[37] = system: SK-MEL-28 melanoma
[38] = system: MCF7 breast
[39] = system: MDA-MB-435
[40] = system: RPMI-8226 leukemia
[41] = system: MDA-MB-231 breast
[42] = system: HS 578T breast
[43] = system: OVCAR-5 ovarian
[44] = system: OVCAR-4 ovarian
[45] = system: BT-549 breast
[46] = system: OVCAR-8 ovarian
[47] = system: NCI-H522 lung
[48] = system: A549 NSCLC
[49] = system: CAKI-1 renal
[50] = system: HCT-116 colon
[51] = system: U251 CNS
[52] = system: DU-145 prostate
[53] = system: SW-620 colon
[54] = system: TK-10 renal

Nc1ncc(-c2ccc3ncnc(N4CCc5cc(F)c(Cl)cc54)c3c2)cn1
GI50 [1]: 1820 nM | TGI [1]: > 100000 nM | GI50 [2]: 1450 nM | TGI [2]: > 100000 nM | GI50 [3]: 2860 nM | TGI [3]: > 100000 nM | GI50 [4]: 1770 nM | TGI [4]: > 100000 nM | GI50 [5]: 1730 nM | TGI [5]: > 100000 nM | GI50 [6]: 3160 nM | TGI [6]: > 100000 nM | GI50 [7]: 1940 nM | TGI [7]: > 100000 nM | GI50 [8]: 2700 nM | TGI [8]: > 100000 nM | GI50 [9]: 2430 nM | TGI [9]: 8530 nM | GI50 [10]: 1350 nM | TGI [10]: > 100000 nM | GI50 [11]: 1130 nM | TGI [11]: > 100000 nM | GI50 [12]: 2420 nM | TGI [12]: > 100000 nM | GI50 [13]: 2290 nM | TGI [13]: 11000 nM | GI50 [14]: 1600 nM | TGI [14]: > 100000 nM | GI50 [15]: 1040 nM | TGI [15]: > 100000 nM | GI50 [16]: 1340 nM | TGI [16]: > 100000 nM | GI50 [17]: 350 nM | TGI [17]: 2260 nM | GI50 [18]: 557 nM | TGI [18]: > 100000 nM | GI50 [19]: 162 nM | TGI [19]: 1850 nM | GI50 [20]: 1060 nM | TGI [20]: > 100000 nM | GI50 [21]: 1940 nM | TGI [21]: > 100000 nM | GI50 [22]: 3360 nM | TGI [22]: > 100000 nM | GI50 [23]: 1910 nM | TGI [23]: > 100000 nM | GI50 [24]: 1830 nM | TGI [24]: 36600 nM | GI50 [25]: 1030 nM | TGI [25]: > 100000 nM | GI50 [26]: 3730 nM | TGI [26]: > 100000 nM | GI50 [27]: 244 nM | TGI [27]: 1270 nM | GI50 [28]: 323 nM | TGI [28]: 3710 nM | GI50 [29]: 2250 nM | TGI [29]: > 100000 nM | GI50 [30]: 1910 nM | TGI [30]: 16000 nM | GI50 [31]: 3120 nM | TGI [31]: > 100000 nM | GI50 [32]: 731 nM | TGI [32]: 6870 nM | GI50 [33]: 1020 nM | TGI [33]: > 100000 nM | GI50 [34]: 256 nM | TGI [34]: 1460 nM | GI50 [35]: 741 nM | TGI [35]: > 100000 nM | GI50 [36]: 499 nM | TGI [36]: 10100 nM | GI50 [37]: 2640 nM | TGI [37]: > 100000 nM | GI50 [38]: 278 nM | TGI [38]: > 100000 nM | GI50 [39]: 2610 nM | TGI [39]: > 100000 nM | GI50 [40]: 866 nM | TGI [40]: 5440 nM | GI50 [41]: 1020 nM | TGI [41]: 14300 nM | GI50 [42]: 406 nM | TGI [42]: 3060 nM | GI50 [43]: 1160 nM | TGI [43]: > 100000 nM | GI50 [44]: 2860 nM | TGI [44]: > 100000 nM | GI50 [45]: 1060 nM | TGI [45]: 7340 nM | GI50 [46]: 2300 nM | TGI [46]: > 100000 nM | GI50 [47]: 2800 nM | TGI [47]: > 100000 nM | GI50 [48]: 1320 nM | TGI [48]: > 100000 nM | GI50 [49]: 418 nM | TGI [49]: 6760 nM | GI50 [50]: 1990 nM | TGI [50]: > 100000 nM | GI50 [51]: 3260 nM | TGI [51]: > 100000 nM | GI50 [52]: 722 nM | TGI [52]: > 100000 nM | GI50 [53]: 2510 nM | TGI [53]: > 100000 nM | GI50 [54]: 696 nM | TGI [54]: 7410 nM
